US20210395256A1, “TYROSINE KINASE INHIBITORS, COMPOSITIONS AND METHODS THERE OF” (Betta Pharmaceuticals Co., Ltd., priority 2018, published 2021)
pIC50: −log10 of the molar value. Read-outs that look alike come from different tables or passages of the source.

How the values were obtained:
Ba/F3-ETV6-NTRK3 = target: T1, Ba/F3-ETV6-NTRK3 (Homo sapiens, UniProt Q16288); assay: Ba/F3-ETV6-NTRK3 cells proliferation assay; format: cell-based; details: 72 h, CellTiter Glo
T1 construct: Ba/F3 cells with TPM3-NTRK1 or ETV6-NTRK3 fusion mutation gene stably overexpressed named Ba/F3-TPM3-NTRK1 and Ba/F3-ETV6-NTRK3; fused on or other part: P41212 (Transcription factor ETV6)
T1 sequence (Q16288 whole entry, the tested form may be a part): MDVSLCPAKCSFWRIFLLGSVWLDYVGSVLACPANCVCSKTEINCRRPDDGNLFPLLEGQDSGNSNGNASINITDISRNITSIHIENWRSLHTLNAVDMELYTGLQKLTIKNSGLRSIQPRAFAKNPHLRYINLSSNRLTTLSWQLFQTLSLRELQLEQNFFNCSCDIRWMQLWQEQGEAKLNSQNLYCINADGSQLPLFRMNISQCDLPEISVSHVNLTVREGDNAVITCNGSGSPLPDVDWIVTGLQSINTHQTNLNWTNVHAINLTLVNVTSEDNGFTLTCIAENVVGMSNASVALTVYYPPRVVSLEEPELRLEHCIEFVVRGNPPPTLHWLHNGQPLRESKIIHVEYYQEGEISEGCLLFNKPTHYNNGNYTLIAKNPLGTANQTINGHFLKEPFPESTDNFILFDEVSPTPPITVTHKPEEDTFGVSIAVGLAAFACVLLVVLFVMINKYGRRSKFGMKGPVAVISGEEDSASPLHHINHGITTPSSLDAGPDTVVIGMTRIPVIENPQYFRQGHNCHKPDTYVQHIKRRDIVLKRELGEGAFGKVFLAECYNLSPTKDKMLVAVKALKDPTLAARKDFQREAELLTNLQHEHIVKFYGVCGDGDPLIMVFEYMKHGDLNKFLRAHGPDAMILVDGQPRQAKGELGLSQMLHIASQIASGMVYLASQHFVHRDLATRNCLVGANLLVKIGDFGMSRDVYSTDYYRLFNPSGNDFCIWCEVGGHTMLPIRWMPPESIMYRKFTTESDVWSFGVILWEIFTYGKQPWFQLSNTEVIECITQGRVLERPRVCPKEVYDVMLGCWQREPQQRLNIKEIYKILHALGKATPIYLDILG
Procedure: (§1) Example 202 Ba/F3-TPM3-NTRK1 and Ba/F3-ETV6-NTRK3 cells proliferation assay
(§2) Cell line: Ba/F3 cells with TPM3-NTRK1 or ETV6-NTRK3 fusion mutation gene stably overexpressed named Ba/F3-TPM3-NTRK1 and Ba/F3-ETV6-NTRK3.
(§3) RPMI 1640 and 10% FBS and 1% PS and 2 ug/mL puromycin.
(§4) b) Collect cell to a 15 mL centrifuged tube, centrifuge at 1000 rpm for 5 min. Discard the supernatant, count, and make the cell density at 1.49×10^4 cells/mL, then place it in a 37° C., 5% CO2 incubator.
(§5) a) The test compound (20 mM stock solution) was diluted to 60 μM with 100% DMSO as starting concentration then 3-fold serial diluted with “9+0” concentrations. in a 96-well dilution plate (Thermo, Cat. No. 249944);
(§6) b) The above compound solution was diluted 1:20 times with culture medium to prepare a 10 fold working solution;
(§7) a) Take cells in log phase growth, centrifuge at 1000 rpm for 5 min, then resuspend the cells with culture medium, then count cells;
(§8) b) Cells were seeded to 96-well cell culture plate with density at 2000 cells/well;
(§9) a) Compounds prepared at step 2 were added to cell plate with 15 μL per well, the final concentrations were 300, 100, 33.33, 11.11, 3.70, 1.23, 0.41, 0.14, 0.05 and 0 nM, and the final concentration of DMSO was 0.5%. The blank control well was a culture medium (0.5% DMSO);
(§10) c) The cells were incubated for an additional 72 h in the incubator.
(§11) a) Remove the 96-well cell culture plate and add 50 μl of CTG reagent (CellTiter Glo kit, promega, Cat #G7573).
(§12) b) Plate was shaked for 2 min and then let it cool for 30 min at room temperature.
(§13) c) The Luminescence signal value was read using a PerkinElmer reader.
(§14) Experimental Data Analysis
(§15) Data were analyzed using GraphPad Prism 6.0 software to obtain a fitted curve of compound activity.
(§16) Fit the Compound IC50 from non-linear regression equation:
(§17) Y=Bottom+(Top-Bottom)/(1+10^((Log IC50-X)×HillSlope));
(§18) X: The log of the concentration of the compound; Y: Luminescence value.

[1] = Liver microsomes metabolic stability assay, rat; format: in vitro ADME; details: male, rat liver microsomes 0.5 mg/mL, 37° C.; for half-life at 2 μM: read-out: t1/2 Rat
Procedure, shortened: (§19)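 Pooled human, male rat or male mouse liver microsomes (0.5 mg/mL final) incubated at 37° C with 2 μM compound, with or without 1 mM NADPH. Samples at 0-60 min quenched in cold acetonitrile and analyzed by LC-MS/MS in duplicate. t1/2 derived from ln(% remaining) vs time slope, converted to CLint (μL/min/mg).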

NTRK1-G595R = NTRK1-G595R (Homo sapiens, UniProt P04629, G595R); assay: NTRK1-G595R cell proliferation assay (Table 13); format: cell-based
Chain of NTRK1-G595R (P04629 33-796 G595R): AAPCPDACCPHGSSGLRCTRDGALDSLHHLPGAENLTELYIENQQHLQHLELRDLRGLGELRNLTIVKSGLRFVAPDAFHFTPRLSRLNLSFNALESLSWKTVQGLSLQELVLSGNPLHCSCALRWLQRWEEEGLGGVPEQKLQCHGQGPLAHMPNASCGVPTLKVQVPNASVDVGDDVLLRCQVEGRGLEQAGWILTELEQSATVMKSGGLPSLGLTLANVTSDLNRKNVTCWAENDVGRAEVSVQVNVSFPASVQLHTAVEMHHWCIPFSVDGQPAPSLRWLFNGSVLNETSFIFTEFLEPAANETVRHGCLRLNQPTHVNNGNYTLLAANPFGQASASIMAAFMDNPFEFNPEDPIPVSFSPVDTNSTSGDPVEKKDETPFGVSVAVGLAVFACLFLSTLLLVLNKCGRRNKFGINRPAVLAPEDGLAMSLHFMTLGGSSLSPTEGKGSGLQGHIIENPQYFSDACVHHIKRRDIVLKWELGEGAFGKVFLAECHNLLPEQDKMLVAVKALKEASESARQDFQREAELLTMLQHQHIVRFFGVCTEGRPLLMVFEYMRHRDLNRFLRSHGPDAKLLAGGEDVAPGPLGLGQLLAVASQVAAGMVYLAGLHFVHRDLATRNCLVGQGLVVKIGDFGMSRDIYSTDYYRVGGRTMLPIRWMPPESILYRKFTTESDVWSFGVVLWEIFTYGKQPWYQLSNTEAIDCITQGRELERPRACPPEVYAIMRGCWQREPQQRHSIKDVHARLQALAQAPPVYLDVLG

[2] = Liver microsomes metabolic stability assay, mouse; format: in vitro ADME; details: male, mouse liver microsomes 0.5 mg/mL, 37° C.; for half-life at 2 μM: read-out: t1/2 Mouse
Procedure, shortened: as §19

[3] = Liver microsomes metabolic stability assay, human; format: in vitro ADME; details: human liver microsomes 0.5 mg/mL, 37° C.; for half-life at 2 μM: read-out: t1/2 Human
Procedure, shortened: as §19

Ba/F3-TPM3-NTRK1 = target: T2, Ba/F3-TPM3-NTRK1 (Homo sapiens, UniProt P04629); assay: Ba/F3-TPM3-NTRK1 cells proliferation assay; format: cell-based; details: 72 h, CellTiter Glo
T2 construct: expressed in transfected cells; host or cells: Ba/F3; the other entry of the earlier key: TPM3 (P06753, Tropomyosin alpha-3 chain)
T2 sequence (P04629 510-796 limits assumed): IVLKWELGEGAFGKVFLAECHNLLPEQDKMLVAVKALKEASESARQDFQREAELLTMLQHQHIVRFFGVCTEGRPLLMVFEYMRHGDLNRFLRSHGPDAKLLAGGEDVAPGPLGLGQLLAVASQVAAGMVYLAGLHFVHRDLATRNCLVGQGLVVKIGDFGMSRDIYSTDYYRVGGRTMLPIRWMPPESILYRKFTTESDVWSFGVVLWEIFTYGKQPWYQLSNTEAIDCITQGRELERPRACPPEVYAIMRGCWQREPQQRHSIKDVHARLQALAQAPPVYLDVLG
Procedure: as §1, §2, §3, §4, §5, §6, §7, §8, §9, §10, §11, §12, §13, §14, §15, §16, §17, §18

TrkA kinase = TrkA kinase (Homo sapiens, UniProt P04629); assay: TrkA kinase assay (mobility shift assay); format: biochemical; details: read-out: Trk A Kinase IC50
Chain of TrkA kinase (P04629 33-796): as the sequence (P04629 33-796 G595R) above, with R563G counted along it
Procedure, shortened: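 Caliper mobility-shift readout of FAM-labelled peptide conversion by TrkA in 50 mM HEPES pH 7.5, 0.0015% Brij-35, with ATP; enzyme preincubated 10 min with compound (10-point dilution), reaction at 28 °C, EDTA stop. Inhibition relative to DMSO and no-enzyme controls; IC50 by four-parameter fit.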

Row | SMILES | pIC50 (Ba/F3-ETV6-NTRK3) | microsomal CLint at 2 μM [1] | half-life at 2 μM [1] | pIC50 (NTRK1-G595R) | microsomal CLint at 2 μM [2] | half-life at 2 μM [2] | microsomal CLint at 2 μM [3] | half-life at 2 μM [3] | pIC50 (Ba/F3-TPM3-NTRK1) | pIC50 (TrkA kinase; numeric values) | pIC50 (TrkA kinase; class symbols)
1 | COc1cc2nc(-c3cnn4ccc(N5CCC[C@@H]5c5cc(F)ccc5F)nc34)[nH]c2cc1C#N [Compound 125, (R)-2-(5-(2-(2,5-difluorophenyl)pyrrolidin-1-yl)pyrazolo[1,5-a]pyrimidin-3-yl)-5-methoxy-1H-benzo[d]imidazole-6-carbonitrile] | 8.66 | 15 µL/min/mg | 92.4 min | 7.33 | 16.4 µL/min/mg | 84.5 min | 17.2 µL/min/mg | 80.6 min | 8.86 | 8.96 | –
2 | CSc1cc2nc(-c3cnn4ccc(N5CCC[C@@H]5c5cc(F)ccc5F)nc34)[nH]c2cc1C#N [Compound 126, (R)-2-(5-(2-(2,5-difluorophenyl)pyrrolidin-1-yl)pyrazolo[1,5-a]pyrimidin-3-yl)-5-(methylthio)-1H-benzo[d]imidazole-6-carbonitrile] | – | 21 µL/min/mg | 66 min | 6.98 | 33.4 µL/min/mg | 41.5 min | 42.2 µL/min/mg | 32.8 min | 8.98 | – | ≥ 8.00
3 | N#Cc1cc2nc(-c3cnn4ccc(N5CCC[C@@H]5c5cc(F)ccc5F)nc34)[nH]c2cc1C#N [Compound 148, (R)-2-(5-(2-(2,5-difluorophenyl)pyrrolidin-1-yl)pyrazolo[1,5-a]pyrimidin-3-yl)-1H-benzo[d]imidazole-5,6-dicarbonitrile] | 8.81 | 3.6 µL/min/mg | 385 min | 7.09 | 14 µL/min/mg | 99 min | 1.2 µL/min/mg | 1160 min | 8.66 | 8.82 | –
4 | COC(=O)c1cc2nc(-c3cnn4ccc(N5CCC[C@@H]5c5cc(F)ccc5F)nc34)[nH]c2cc1OC [Compound 155, methyl (R)-2-(5-(2-(2,5-difluorophenyl)pyrrolidin-1-yl)pyrazolo[1,5-a]pyrimidin-3-yl)-6-methoxy-1H-benzo[d]imidazole-5-carboxylate] | 9.28 | – | – | 7.74 | – | – | – | – | 8.92 | 9.22 | –
5 | N#Cc1cc2nc(-c3cnn4ccc(N5CCC[C@@H]5c5cc(F)ccc5F)nc34)[nH]c2cc1OC(F)F [Compound 156, (R)-6-(difluoromethoxy)-2-(5-(2-(2,5-difluorophenyl)pyrrolidin-1-yl)pyrazolo[1,5-a]pyrimidin-3-yl)-1H-benzo[d]imidazole-5-carbonitrile] | 8.25 | – | – | 6.74 | – | – | – | – | 8.41 | 8.32 | –
6 | CNC(=O)c1cc2nc(-c3cnn4ccc(N5CCC[C@@H]5c5cc(F)ccc5F)nc34)[nH]c2cc1OC [Compound 160, (R)-2-(5-(2-(2,5-difluorophenyl)pyrrolidin-1-yl)pyrazolo[1,5-a]pyrimidin-3-yl)-6-methoxy-N-methyl-1H-benzo[d]imidazole-5-carboxamide] | 8.69 | 92.4 µL/min/mg | 15 min | 7.81 | 105 µL/min/mg | 13.2 min | 56.2 µL/min/mg | 24.7 min | 8.97 | 9.37 | –
7 | COCCOc1cc2[nH]c(-c3cnn4ccc(N5CCC[C@@H]5c5cc(F)ccc5F)nc34)nc2cc1C#N [Compound 169, (R)-2-(5-(2-(2,5-difluorophenyl)pyrrolidin-1-yl)pyrazolo[1,5-a]pyrimidin-3-yl)-6-(2-methoxyethoxy)-1H-benzo[d]imidazole-5-carbonitrile] | – | 78.4 µL/min/mg | 17.7 min | 6.99 | 102 µL/min/mg | 13.5 min | 55.8 µL/min/mg | 24.8 min | 8.54 | – | ≥ 8.00
8 | C[S+]([O-])c1cc2nc(-c3cnn4ccc(N5CCC[C@@H]5c5cc(F)ccc5F)nc34)[nH]c2cc1C#N (stereo partly drawn) [Compound 171, 2-(5-((R)-2-(2,5-difluorophenyl)pyrrolidin-1-yl)pyrazolo[1,5-a]pyrimidin-3-yl)-5-(methylsulfinyl)-1H-benzo[d]imidazole-6-carbonitrile] | 8.58 | 58.2 µL/min/mg | 23.8 min | 6.67 | 71.2 µL/min/mg | 19.5 min | 45.4 µL/min/mg | 30.5 min | 8.47 | 9.00 | –
9 | CS(=O)(=O)c1cc2nc(-c3cnn4ccc(N5CCC[C@@H]5c5cc(F)ccc5F)nc34)[nH]c2cc1C#N [Compound 172, (R)-2-(5-(2-(2,5-difluorophenyl)pyrrolidin-1-yl)pyrazolo[1,5-a]pyrimidin-3-yl)-5-(methylsulfonyl)-1H-benzo[d]imidazole-6-carbonitrile] | 8.60 | 44.8 µL/min/mg | 30.9 min | 6.59 | 32.4 µL/min/mg | 42.8 min | 41.6 µL/min/mg | 33.3 min | 8.68 | 9.22 | –
10 | CS(=O)(=O)c1cc2nc(-c3cnn4ccc(N5CCC[C@@H]5c5cc(F)ccc5F)nc34)[nH]c2cc1C(N)=O [Compound 173, (R)-2-(5-(2-(2,5-difluorophenyl)pyrrolidin-1-yl)pyrazolo[1,5-a]pyrimidin-3-yl)-5-(methylsulfonyl)-1H-benzo[d]imidazole-6-carboxamide] | – | 45.2 µL/min/mg | 30.7 min | 7.05 | 97.6 µL/min/mg | 14.2 min | 46.6 µL/min/mg | 29.7 min | 8.66 | – | ≥ 8.00
